Results reported in patent US8541572B2.

Test system: TNF-α production in LPS-stimulated human whole blood
Assay: Inhibition of TNF-α production from human whole blood (hWBA)
Assay type: cell-based
Conditions: Homo sapiens, IC50 for TNF-α production, LPS-stimulated human whole blood; read-out: hWBA

`COc1ccc2c(c1)C(=O)N(C[C@@]1(C#Cc3cncc(C(=O)NN)c3)NC(=O)NC1=O)C2` [Compound 2255] gave an IC50 of 432 nM.

Same assay, conditions: Homo sapiens, IC50 for inhibition of TNF-α production, LPS-stimulated human whole blood; read-out: hWBA

In order of falling IC50:
1. COc1ccc2c(c1)C(=O)N(C[C@@]1(C#Cc3cc(Br)ccc3O)NC(=O)NC1=O)C2 [Compound 2229]  10000 nM
2. COc1ccc2c(c1)C(=O)N(C[C@@]1(C#Cc3cnc4ccccc4c3CO)NC(=O)NC1=O)C2 [Compound 2219]  8900 nM
3. COc1ccc2c(c1)C(=O)N(C[C@@]1(C#Cc3cnc(N)nc3N)NC(=O)NC1=O)C2 [Compound 2209]  1600 nM
4. COc1ccc2c(c1)C(=O)N(C[C@@]1(C#Cc3ccc(C(c4ccc[nH]4)c4ccc[nH]4)cc3)NC(=O)NC1=O)C2 [Compound 2201]  1200 nM
5. COc1ccc2c(c1)C(=O)N(C[C@@]1(C#Cc3cnc(C)nc3O)NC(=O)NC1=O)C2 [Compound 2231]  1130 nM
6. COc1ccc2c(c1)C(=O)N(C[C@@]1(C#Cc3ccc(OC)nc3OC)NC(=O)NC1=O)C2 [Compound 2230]  1000 nM
7. COc1ccc2c(c1)C(=O)N(C[C@@]1(C#Cc3ccccc3C=O)NC(=O)NC1=O)C2 [Compound 1918]  936 nM
8. COc1ccc2c(c1)C(=O)N(C[C@@]1(C#Cc3ccc(CCNC(=O)C(F)(F)F)s3)NC(=O)NC1=O)C2 [Compound 2221]  930 nM
9. COc1ccc2c(c1)C(=O)N(C[C@@]1(C#Cc3cncc(-c4ccc(C(N)=O)o4)c3)NC(=O)NC1=O)C2 [Compound 2213]  776 nM
10. COc1ccc2c(c1)C(=O)N(C[C@@]1(C#Cc3cncc(-c4cc[nH]n4)c3)NC(=O)NC1=O)C2 [Compound 2234]  678 nM
11. COc1ccc2c(c1)C(=O)N(C[C@@]1(C#Cc3ccc(-n4cn[nH]c4=O)cc3)NC(=O)NC1=O)C2 [Compound 1914]  538 nM
12. COc1ccc2c(c1)C(=O)N(C[C@@]1(C#Cc3cc(C(N)=O)ccc3C)NC(=O)NC1=O)C2 [Compound 2220]  417 nM
13. COc1ccc2c(c1)C(=O)N(C[C@@]1(C#Cc3ccc(-n4c(-c5cccnc5)n[nH]c4=O)cc3)NC(=O)NC1=O)C2 [Compound 1916]  258 nM
14. CCN1CCN(C(=NO)c2cnc(C#C[C@]3(CN4Cc5ccc(OC)cc5C4=O)NC(=O)NC3=O)c(OC)c2)CC1 [Compound 1923]  204 nM
15. COc1ccc2c(c1)C(=O)N(C[C@@]1(C#Cc3ccc(NC(=O)C4CCN(C)CC4)cc3)NC(=O)NC1=O)C2 [Compound 1909]  78 nM

Same assay, conditions: IC50 for TNF-α production, LPS-stimulated human whole blood; read-out: hWBA

With `COc1ccc2c(c1)C(=O)N(C[C@@]1(C#Cc3cncc(-c4noc(C(N)=O)n4)c3)NC(=O)NC1=O)C2` [Compound 2254] the IC50 was 713 nM.

Same assay, conditions: IC50 for inhibition of TNF-α production, LPS-stimulated human whole blood; read-out: hWBA

In order of falling IC50:
1. COc1ccc2c(c1)C(=O)N(C[C@@]1(C#Cc3nc(-c4cccc(O)c4)ccc3OC)NC(=O)NC1=O)C2 [Compound 1922]  9910 nM
2. COc1ccc2c(c1)C(=O)N(C[C@@]1(C#Cc3nc(N4CCN(c5ccncc5)CC4)ccc3OC)NC(=O)NC1=O)C2 [Compound 2205]  7270 nM
3. CCN1CCN(C(=O)C2CCC(=O)N2c2ccc(OC)c(C#C[C@]3(CN4Cc5ccc(OC)cc5C4=O)NC(=O)NC3=O)n2)CC1 (stereo partly drawn) [Compound 1917]  3360 nM
4. CCOC(=O)Nc1cncc(C#C[C@]2(CN3Cc4ccc(OC)cc4C3=O)NC(=O)NC2=O)c1 [Compound 2243]  1230 nM
5. COc1ccc2c(c1)C(=O)N(C[C@@]1(C#Cc3ccc(-n4cncn4)cc3)NC(=O)NC1=O)C2 [Compound 2228]  1140 nM
6. COc1ccc2c(c1)C(=O)N(C[C@@]1(C#Cc3cnc(N4CCC(=O)CC4)nc3N)NC(=O)NC1=O)C2 [Compound 2210]  1010 nM
7. COc1ccc2c(c1)C(=O)N(C[C@@]1(C#Cc3ccc(N4CCC(=O)CC4)nc3)NC(=O)NC1=O)C2 [Compound 2211]  1000 nM
8. COc1ccc2c(c1)C(=O)N(C[C@@]1(C#Cc3ccc([C@@]4(CN5Cc6ccc(OC)cc6C5=O)NC(=O)NC4=O)cc3)NC(=O)NC1=O)C2 [Compound 2217]  849 nM
9. COc1ccc2c(c1)C(=O)N(C[C@@]1(C#Cc3cncc(-c4csc(N)n4)c3)NC(=O)NC1=O)C2 [Compound 2233]  811 nM
10. COc1ccc2c(c1)C(=O)N(C[C@@]1(C#Cc3nc(N)ccc3O)NC(=O)NC1=O)C2 [Compound 1921]  808 nM
11. COc1ccc2c(c1)C(=O)N(C[C@@]1(C#Cc3c(C)ncc(C(=O)O)c3O)NC(=O)NC1=O)C2 [Compound 2232]  699 nM
12. COc1ccc2c(c1)C(=O)N(C[C@@]1(C#Cc3ccc(N4C(=O)CCC4(C(=O)O)C(C)(C)O)nc3)NC(=O)NC1=O)C2 (stereo partly drawn) [Compound 1906]  578 nM
13. COc1ccc2c(c1)C(=O)N(C[C@@]1(C#Cc3cnc4nc(O)oc4c3)NC(=O)NC1=O)C2 [Compound 2244]  574 nM
14. COc1ccc2c(c1)C(=O)N(C[C@@]1(C#Cc3ccc4[nH]nc(N)c4c3)NC(=O)NC1=O)C2 [Compound 2237]  520 nM
15. COc1ccc2c(c1)C(=O)N(C[C@@]1(C#Cc3ncc(C(=NO)N4CCN(c5cnccn5)CC4)cc3OC)NC(=O)NC1=O)C2 [Compound 1924]  515 nM
16. COc1ccc2c(c1)C(=O)N(C[C@@]1(C#Cc3cncc(NC(C)=O)c3)NC(=O)NC1=O)C2 [Compound 2242]  444 nM
17. COc1ccc2c(c1)C(=O)N(C[C@@]1(C#Cc3ccc(N(c4cccnc4)C4CCNCC4)nc3)NC(=O)NC1=O)C2 [Compound 2200]  430 nM
18. CCN1CCN(c2n[nH]c3ccc(C#C[C@]4(CN5Cc6ccc(OC)cc6C5=O)NC(=O)NC4=O)cc23)CC1 [Compound 2238]  422 nM
19. COc1ccc2c(c1)C(=O)N(C[C@@]1(C#Cc3ccc(C4(CN5Cc6cc(O)ccc6C5=O)NC(=O)NC4=O)cc3)NC(=O)NC1=O)C2 (stereo partly drawn) [Compound 2216]  419 nM
20. COc1ccc2c(c1)C(=O)N(C[C@@]1(C#Cc3ccc(N4C(=O)CCC4C(=O)N4CCN(C)CC4)cc3)NC(=O)NC1=O)C2 (stereo partly drawn) [Compound 1905]  416 nM
21. COc1ccc2c(c1)C(=O)N(C[C@@]1(C#Cc3cncc(-c4ccc(C(N)=O)cc4)c3)NC(=O)NC1=O)C2 [Compound 2208]  361 nM
22. COc1ccc2c(c1)C(=O)N(C[C@@]1(C#Cc3cncc(NC(=O)C4CCN(C)CC4)c3)NC(=O)NC1=O)C2 [Compound 1908]  299 nM
23. CCNc1nnc(-c2ccc(C#C[C@]3(CN4Cc5ccc(OC)cc5C4=O)NC(=O)NC3=O)cc2)o1 [Compound 1920]  269 nM
24. COc1ccc2c(c1)C(=O)N(C[C@@]1(C#Cc3cncc(-c4cn[nH]c4)c3)NC(=O)NC1=O)C2 [Compound 2207]  260 nM
25. COc1ccc2c(c1)C(=O)N(C[C@@]1(C#Cc3ccc(-c4nnc(N)o4)cc3)NC(=O)NC1=O)C2 [Compound 1919]  244 nM
26. COc1ccc2c(c1)C(=O)N(C[C@@]1(C#Cc3ccc(-n4c(C)n[nH]c4=O)cc3)NC(=O)NC1=O)C2 [Compound 1915]  243 nM
27. COc1ccc2c(c1)C(=O)N(C[C@@]1(C#Cc3ccc(C4=NCCN4)cc3)NC(=O)NC1=O)C2 [Compound 2222]  227 nM
28. COc1ccc2c(c1)C(=O)N(C[C@@]1(C#Cc3ccc(CCN)cc3)NC(=O)NC1=O)C2 [Compound 2202]  219 nM
29. COc1ccc2c(c1)C(=O)N(C[C@@]1(C#Cc3ccc(-c4nnc[nH]4)cc3OC)NC(=O)NC1=O)C2 [Compound 2223]  131 nM
30. COc1ccc2c(c1F)C(=O)N(C[C@@]1(C#Cc3cncc(NC(=O)C4CCN(C)CC4)c3)NC(=O)NC1=O)C2 [Compound 1907]  86 nM
31. COc1ccc2c(c1)C(=O)N(C[C@@]1(C#Cc3ccc(C(=NO)C4CCN(C)CC4)cc3)NC(=O)NC1=O)C2 [Compound 2246]  40 nM
